In patent US20200386748A1, “COMPOSITIONS AND METHODS FOR ANALYTE DETECTION USING BIOLUMINESCENCE” (Promega Corporation, priority 2019, published 2020):
Residues, ends and D or L forms follow the SMILES beside them. No end group written: not given here. *: point of attachment. X1 = O=C(CCOCCOCCOCOCCOCCOCCOCCC(=O)*)ON1C(=O)CC(S(=O)(=O)O)C1=O; X3 = O=C(CCOCCOCCOCCOCCOCCOCCC(=O)*)ON1C(=O)CC(S(=O)(=O)O)C1=O; X2 = O=C(CCOCCOCCOCCC(=O)*)ON1C(=O)CC(S(=O)(=O)O)C1=O

What was measured:
rhIL-6 = assay: Solution-based IL-6 immunoassay with antibodies directly labeled with reactive peptides; design: species or system human; details: for IL-6 assay result with LgTrip 5146: 1 μM LgTrip 5146 instead of LgTrip 3546; for signal to background: IL-6 titration; for signal to background / signal in the absence of rhIL-6: paired with HW-1053, 1 μM LgTrip 3546; for light output in the presence of high rhIL-6 concentrations: SmTrip9 label on 5IL6 antibody paired with HW-1053-labeled 505E antibody, 1 μM LgTrip 3546
Procedure: The basic principle of homogeneous NanoLuc tripartite immunoassays with directly-labeled antibodies is depicted in FIG. 78.
SmTrip9 variants such as Pep693 (SEQ ID NO: 20), Pep895 (SEQ ID NO: 24), and Pep929 (SEQ ID NO: 25) or SmTrip10 variants such as Pep691 (SEQ ID NO: 18) and Pep692 (SEQ ID NO: 19) were individually dissolved in DMF to 5 mM. […] Subsequently, these antibodies were combined with 20× molar excess of a reactive peptide for 1 hr at 4° C. while shaking in order to covalently label the proteins. […] SmTrip9 reactive peptides were used to label antibody 5IL6 while SmTrip10 reactive peptides were used to label antibody 505E. The denaturing SDS-PAGE gel shown in FIG. 79 was used to characterize the conjugated antibodies.
FIGS. 80-82 display raw RLU dose response curves for antibody conjugates in the presence of a rhIL-6 titration series. […] After addition of N205, luminescence signal was measured. […] Data in FIG. 81 were generated using 62.5 ng/ml of SmTrip9-labeled (HW-0984) 5IL6 antibody and 60 ng/ml of SmTrip10-labeled (HW-1053) 505E antibody. Data in FIG. 82 were generated using the following concentrations of antibody conjugates: 15 ng/ml HW-1043 (SEQ ID NO: 24)+30 ng/ml HW-1053 (SEQ ID NO: 18), 15 ng/ml HW-1052 (SEQ ID NO: 25)+15 ng/ml HW-1053, (SEQ ID NO: 18) 15 ng/ml HW-1055 (SEQ ID NO: 25)+15 ng/ml HW-1053 (SEQ ID NO: 18), 60 ng/ml HW-1042 (SEQ ID NO: 20)+8 ng/ml HW-1053 (SEQ ID NO: 18), and 60 ng/ml HW-1050 (SEQ ID NO: 27)+8 ng/ml HW-1053 (SEQ ID NO: 18).

purified NANOLUC enzyme = biological target: T1, purified NANOLUC enzyme (Oplophorus gracilirostris, UniProt Q9GV45, A31E/A60N/A81I/F95D/I117V/K70R/L54V/L99Q/M102K/N193R/P142E/Q151K/Q38R/Q45L/V71I/Y165I); format: biochemical; details: stored in organic solvent at elevated temperature (60° C.)
T1 construct: purchased Promega

LgTrip 3546 = assay: titration of the single labeled antibody with 1 µM LgTrip 3546 and N205, no IL-6 (FIG. 83)
[1] = Protein buffer formulations for proteins dried on Whatman 903 paper; details: buffers 2 and 5
Procedure: For these experiments, Whatman 903 protein saver spot cards were used with the following protein buffer formulations: • Protein buffer 1: 20 mM Na3PO4, 5% w/v BSA, 0.25% v/v tween 20, 10% w/v sucrose • Protein buffer 2: 20 mM Na3PO4, 0.25% v/v tween 20, 10% w/v sucrose • Protein buffer 3: 20 mM Na3PO4, 5% w/v BSA, 0.25% v/v tween 20 • Protein buffer 4: 20 mM Na3PO4, 5% w/v BSA, 0.25% v/v tween 20, 2.5% pullulan • Protein buffer 5: 20 mM Na3PO4, 0.25% v/v tween 20, 2.5% pullulan.
For NanoLuc, a 1000× stock solution was diluted 1:1000 in protein buffer (1 mL). For a 1.068 nM stock solution, 3 μl was diluted into 297 μl of protein buffer. About 5 μL of each concentration was spotted on the filter paper. For LgBiT-1672-11s-His, 5 μL of 1.068 nM protein per spot was used. About 104, was diluted in 990 μL protein buffer for a 2e^−7M stock. About 100 μL of a 100 nM protein solution was then prepared, and about 10 μL stock was diluted into 990 μL protein buffer for 1 nM stock. About 5 μL of each concentration was spotted onto filter paper. For LgTrip 3546, about 5 μL of 1.068 nM protein was used per spot. About 1.1 of LgBiT-1672 stock was diluted into 998.94 μL protein buffer. About 3 μL stock was diluted into 297 μL protein buffer. About 54, of each concentration was spotted onto filter paper. After all protein was added, the samples were dried at 30° C. for about 1 hour. […]

LgTrip 3546, sequence (chain, as listed by the source): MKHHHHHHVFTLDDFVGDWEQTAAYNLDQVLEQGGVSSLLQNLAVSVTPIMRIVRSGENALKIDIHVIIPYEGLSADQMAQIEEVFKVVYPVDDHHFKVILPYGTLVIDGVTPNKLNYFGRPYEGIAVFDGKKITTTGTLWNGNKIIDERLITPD

RLU (LgTrip 3546) [RLU]	Molecule	signal in the absence of rhIL-6 (rhIL-6)	also measured
	CC[C@H](C)[C@H](NC(=O)[C@@H](NC(=O)[C@@H](NC(=O)[C@@H](NC(=O)[C@H](Cc1ccccc1)NC(=O)[C@H](CC(C)C)NC(=O)[C@H](CC(C)C)NC(=O)[C@H](CCCNC(=N)N)NC(=O)CNC(=O)CCOCCOCCOCCOCOCCOCCOCCC(=O)ON1C(=O)CC(S(=O)(=O)O)C1=O)[C@@H](C)O)C(C)C)[C@@H](C)O)C(=O)N[C@@H](CCC(=O)O)C(=O)N[C@@H](CCCNC(=N)N)C(=O)N[C@@H](Cc1ccc(O)cc1)C(=O)N[C@@H](CCCNC(=N)N)C(N)=O (some centres unmarked) [HW-1043, SulfoSE-PEG6-SmTrip9 Pep895] (X1-GRLLFTVTIERYR-NH2)	low light output in the absence of the analyte	IL-6 assay result with LgTrip 5146 (rhIL-6): results similar to LgTrip 3546; signal to background (rhIL-6): best signal to background; light output in the presence of high rhIL-6 concentrations (rhIL-6): ~10^6 RLUs
	CC[C@H](C)[C@H](NC(=O)[C@@H](NC(=O)[C@@H](NC(=O)[C@H](CCCNC(=N)N)NC(=O)[C@H](Cc1ccccc1)NC(=O)[C@H](CC(C)C)NC(=O)[C@H](CCSC)NC(=O)[C@H](CCCNC(=N)N)NC(=O)[C@H](CCCNC(=N)N)NC(=O)CCOCCOCCOCCOCCOCCOCCC(=O)ON1C(=O)CC(S(=O)(=O)O)C1=O)C(C)C)[C@@H](C)O)C(=O)N[C@@H](CCC(N)=O)C(=O)N[C@@H](CCCNC(=N)N)C(=O)N[C@@H](Cc1c[nH]c2ccccc12)C(=O)N[C@@H](CCCNC(=N)N)C(=O)O (some centres unmarked) [HW-1052, SulfoSE-PEG6-SmTrip9 Pep929] (X3-RRMLFRVTIQRWR-OH)	high signal even in the absence of rhIL-6	
	CC[C@H](C)[C@H](NC(=O)[C@@H](NC(=O)[C@@H](NC(=O)[C@H](CCCNC(=N)N)NC(=O)[C@H](Cc1ccccc1)NC(=O)[C@H](CC(C)C)NC(=O)[C@H](CCSC)NC(=O)[C@H](CCCNC(=N)N)NC(=O)[C@H](CCCNC(=N)N)NC(=O)CCOCCOCCOCCC(=O)ON1C(=O)CC(S(=O)(=O)O)C1=O)C(C)C)[C@@H](C)O)C(=O)N[C@@H](CCC(N)=O)C(=O)N[C@@H](CCCNC(=N)N)C(=O)N[C@@H](Cc1c[nH]c2ccccc12)C(=O)N[C@@H](CCCNC(=N)N)C(=O)O (some centres unmarked) [HW-1055, SulfoSE-PEG3-SmTrip9 Pep929] (X2-RRMLFRVTIQRWR-OH)	high signal even in the absence of rhIL-6	
	O=c1c(Cc2ccco2)nc2c(Cc3ccccc3)[nH]c(-c3ccccc3)cn1-2 [furimazine, 8-benzyl-2-(furan-2-ylmethyl)-6-phenylimidazo[1,2-a]pyrazin-3(7H)-one]		time to loss of all activity (purified NANOLUC enzyme): about 10 days
	SulfoSE-PEG3-SmTrip9 Pep938-SA (GRMLFRVTINSWRC; also: SulfoSE-PEG3 label, position not given here) [HW-1050]	low light output in the absence of the analyte	IL-6 assay result with LgTrip 5146 (rhIL-6): results similar to LgTrip 3546; signal to background (rhIL-6): best signal to background; light output in the presence of high rhIL-6 concentrations (rhIL-6): ~10^6 RLUs
100	RRMLFRVTIQRWR (antibody, not shown: large carriers; small tags and cut ends, not fully specified) [anti-IL-6 antibody 5IL6 directly labeled with HW-1052 (SulfoSE-PEG6-SmTrip9 Pep929)]		
	NanoLuc: bioluminescent polypeptide of SEQ ID NO: 5, NanoLuc luciferase (Promega) (protein) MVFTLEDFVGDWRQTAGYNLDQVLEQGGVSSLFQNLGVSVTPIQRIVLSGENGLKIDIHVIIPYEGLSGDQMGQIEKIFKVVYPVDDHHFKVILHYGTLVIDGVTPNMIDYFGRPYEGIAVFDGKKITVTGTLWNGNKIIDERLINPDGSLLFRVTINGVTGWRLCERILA		change of RLU in protein buffers without BSA [1]: largest decreases in RLU
100	GRLLFVVVIERYR (antibody, not shown: large carriers; small tags and cut ends, not fully specified) [anti-IL-6 antibody 5IL6 directly labeled with HW-1010 (SulfoSE-PEG3-SmTrip9 Pep895)]		
100	VSGWRLFRRIS (antibody, not shown: large carriers; small tags and cut ends, also: peptide labeled on anti-IL-6 antibody 505E via SulfoSE-PEG3 linker) [anti-IL-6 antibody 505E directly labeled with HW-0977 (SulfoSE-PEG3-SmTrip10 Pep691)]		
> 1000	GRMLFRVTINSWR (antibody, not shown: large carriers; small tags and cut ends, not fully specified) [anti-IL-6 antibody 5IL6 directly labeled with HW-0984 (SulfoSE-PEG3-SmTrip9 Pep693)]		
100	GRMLFRVTINSWR (antibody, not shown: large carriers; small tags and cut ends, not fully specified) [anti-IL-6 antibody 5IL6 directly labeled with HW-1042 (SulfoSE-PEG6-SmTrip9 Pep693)]		
